Tests used:
[1] = biological target: T1, Cx43 CT (Homo sapiens, UniProt P17302); experiment: EDAC cross-linking of ACT-1 and Cx43 carboxy terminal peptide (polyacrylamide gel); assay type: binding
T1 construct: EDAC cross-linking reaction of ACT-1 and connectin 43 carboxy terminal peptide
From the text: FIG. 6 is an image of a polyacrylamide gel showing EDAC cross-linking of ACT-1 and Cx43-CT.
FIG. 6 is an image of a polyacrylamide gel showing EDAC cross-linking reaction of ACT-1 and connectin 43 carboxy terminal peptide. […] ACT-1 is shown by the zero order cross-linker EDAC.

[2] = test system: U87MG glioma cells; experiment: Cell aggregation assay, aggregation index (AI); assay type: cell-based, human; conditions: 25 μM, 48 hours, serum-free
Procedure: UM87MG glioma cells, which express Cx43, were cultured in serum-free conditions permissive to aggregation. The cells were treated with the ACT-1 peptide for 48 hours and then imaged with phase-contrast microscopy. […] To quantitate the extent of aggregation, ImageJ software was used to collect size information about the aggregates in these images and from that information an aggregation index was calculated for each image. The AI is defined as the total area of aggregation in a field divided by the number of single, unaggregated cells in that field. So an increase in the ratio of aggregation area to unaggregated cells would increase the AI and indicate a higher propensity to aggregate.

[3] = test system: Cx-deficient C6 glioma cell line; experiment: Cell aggregation assay on Cx-deficient cells; assay type: cell-based; conditions: 1 μM and 25 μM compared
[4] = test system: U87 glioma cells; experiment: Boyden chamber motility assay (Example 3); assay type: cell-based, human; conditions: overnight pre-treatment in 10% serum, 4 hour incubation; vs no treatment and control peptide
Procedure: After an overnight peptide pre-treatment in 10% serum, two glioma cell lines, c6 and U87, were seeded in serum-free media containing peptides into Boyden chamber transwell inserts with 8 μm pores in the membrane and then filled the bottom wells with media containing 10% FBS as a chemoattractant. […] Then the migrated cells were fixed, stained with Hoescht dye, and imaged on an epifluorescence microscope.

[5] = test system: C6 cells stably expressing Cx43; experiment: Boyden chamber motility assay (Example 4, serum-free pre-treatment); assay type: cell-based; conditions: both concentrations of ACT-1 (1 μM, 25 μM); 24 hours serum-free pre-treatment, 4 hours
Procedure: FIGS. 10A-10C are images of a motility experiment using C6 cells stably expressing Cx43 showing no treatment (FIG. 10A), 25 μM reverse sequence peptide (control peptide) (FIG. 10B) and 25 μM ACT-1 (FIG. 10C).
FIG. 10D is a graph showing the results of the motility experiment using C6 cells stably expressing Cx43 showing no treatment, 1 μM ACT-1, 25 μM ACT-1, 1 μM reverse sequence peptide (control peptide), and 25 μM reverse sequence peptide (control peptide).
(§1) In this example, peptides were added after cells were incubated in serum-free media, then 24 hours of pre-treatment was allowed in the serum-free conditions, and finally the cells were transferred, without typsinizing, to Boyden chamber and incubated for 4 hours. […] With this example, the results of the C6 cells seemed to be similar to wt-C6 cells.

[6] = test system: wild-type C6 cells; experiment: Boyden chamber motility assay (Example 4) on wild-type cells; assay type: cell-based; conditions: both concentrations of ACT-1 (1 μM, 25 μM)
Procedure: as §1
The same situation was true when the same experiment was performed on wild-type C6 cells.

[7] = test system: GS9-6 cells; experiment: Viability of glioma stem cell line; assay type: cell-based, human; conditions: alone or in combination
Procedure: FIG. 13 is a graph showing the effects of ACT-1 treatment at concentrations from 30 to 120 μM on the viability of the glial stem cell (GSC) line GS9-6 with or without temozolomide.
The ACT-1 peptide was tested on a glioma stem cell (GSC) line alone or in combination with temozolomide (TMZ).

[8] = test system: GS9-6 glioma stem cells; experiment: Sphere/colony formation assay (self-renewal); assay type: cell-based, human; conditions: FIG. 15
From the text: To further investigate the effect of ACT-1 on glioma stem cells, the present inventors measured the capacity of glioma stem cells to self-renew. The unique feature that makes glioma stem cells different from other glioma cells is that glioma stem cells are able to copy themselves (termed as self-renewal). The well-established approach to measure self-renewal of stem cells is sphere/colony formation assay. The self-renewal of GS9-6 glioma stem cells treated with ACT-1 was then monitored. […] Two different doses of ACT-1 and TMZ were tested. Both treatments inhibited the self-renewal of GS9-6 (FIGS. 16 and 17). Thus, the data strongly indicate that ACT-1 sensitizes glioblastoma cells to TMZ.

[9] = test system: LN229/GSCs; experiment: Glioma xenograft mouse model, tumor growth; assay type: in vivo, mice; conditions: 200 μM/tumor ACT-1, 100 mg/kg TMZ
From the text: To further validate the therapeutic effect of ACT-1 in vivo, tumor growth was monitored using a glioma xenograft mouse model. As GS9-6 cells grow slowly in mice, the present inventors elected to use LN229/GSCs, isolated from LN229 human GBM cell line. […] LN229/GSCs were first injected into the flanks of immunocompromised mice and tumors (more than 100 mm3) were detected in all mice in 14 days. By contrast, GS9-6 cells form a tumor in 6 months (data not shown). Treatments at day 14 were then started. First, 100 mg/kg ACT-1 was injected subcutaneously. 24 hours later, mice were treated with 7.5 mg/kg TMZ (dissolved in DMSO) or vehicle DMSO intraperitoneally. Such treatment regime was repeated three times a week for three weeks, and tumor growth was monitored for another week. […] Taken together, these examples provide a firm support for potential clinical application of ACT-1 in treating human or canine glioblastoma patients.
FIG. 21 is a plot of tumor volume over 53 days for untreated, 200 μM/tumor ACT-1, 100 mg/kg TMZ treated, and combinatorial 200 μM/tumor ACT-1 and 100 mg/kg TMZ treated mice. FIG. 22 is a graph of tumor volumes at 53 days and FIG. 23 is an image of tumor volumes at 53 days for these treatments.

[10] = in vivo; cited from earlier work
[11] = taken orally; cited from earlier work
[12] = phase I, brain cancer patients; cited from earlier work
[13] = biological target: Cx43 CT domain (Homo sapiens, UniProt P17302); experiment: Dot blot binding of biotinylated AAP10 peptides to Cx43 CT; conditions: biotinylated peptide, 500-1 ng
Sequence of Cx43 CT domain (P17302 229-382 limits assumed): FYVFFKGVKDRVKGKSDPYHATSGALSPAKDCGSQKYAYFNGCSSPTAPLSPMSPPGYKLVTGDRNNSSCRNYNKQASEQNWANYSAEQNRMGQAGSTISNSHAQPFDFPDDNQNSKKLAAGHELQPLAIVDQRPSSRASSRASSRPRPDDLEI
From the text: FIG. 5 is an image showing the results of a dot blot assay for testing binding of AAP10 and AAP10-pTyr with Connexin43-carboxy terminus (CT).
By contrast, the tyrosine phosphorylated isoform biotinylated AAP10-pTyr show no affinity for Cx43 CT.

[14] = test system: GBM cells; conditions: cited from earlier work

T1 sequence (P17302 229-382 limits assumed): as above

In the case of “ACT-1: SEQ ID NO:9: Antennapedia sequence RQPKIWFPNRRKPWKK linked to Cx43 c-terminal 9 amino acids RPRPDDLEI (RQPKIWFPNRRKPWKKRPRPDDLEI)”, the “effect of binding on Cx43 CT homodimers” value ([1]; EDAC cross-linking) is reported as “reduces Cx43 CT homodimers”, the “interaction with the Cx43 CT (EDAC cross-linking)” value ([1]; zero order cross-linker EDAC) is reported as “interacts with the Cx43 CT” and the “formation of amorphous clumps (phase-contrast images)” value [2] is reported as “tended to form amorphous clumps”. The “aggregation index (AI)” value ([2]; Bonferroni t-test) was “significantly higher AIs relative to controls”, the aggregation versus controls [3] was “no significant difference in aggregation” and the “cell migration across the Boyden chamber membrane” value [4] was “significant decrease in cell migration”. The decrease in migration [5] was 5 ×, the “decrease in motility across the Boyden chamber” value [6] was ~5 × and the “viability of GS9-6 cells” value [7] was “only mildly reduced the viability”. For the same molecule, the “self-renewal of GS9-6 cells” value [8] was “not affected”, the “tumor volume at 53 days” value [9] was “may promote tumor growth” and the “half-life in the body” value [10] was “less than a few hours”.

For `C[C@H]1c2cccc(O)c2C(=O)C2=C(O)[C@]3(O)C(=O)C(C(N)=O)=C(O)[C@@H](N(C)C)[C@@H]3[C@@H](O)[C@@H]21` [Doxycycline], the “CSF to serum ratio” value [11] is listed as ~0.26.

For cintredekin besudotox, the adverse effects [12] is listed as “no significant adverse effects were observed”.

In the case of antiarrhythmic peptide 10 [AAP10], the “affinity for the Cx43 CT domain in a dot blot” value [13] is reported as “concentration dependent affinity”.

For `CC#C[C@]1(O)CC[C@H]2[C@@H]3CCC4=CC(=O)CCC4=C3[C@@H](c3ccc(N(C)C)cc3)C[C@@]21C` [mifepristone], the “sensitization of GBM cells to TMZ” value [14] is given as “sensitizes GBM cells to TMZ”.
